Patent US11141429B2, “Composition and use of macro-minerals to lower postprandial glycemic response and reduce body weight” (American University of Beirut, priority 2016, dated 2021)

What was measured:
Type in all cases: in vivo, human
healthy male subjects [1] = assay: Experiment 1: effect of phosphorus ingestion on oral glucose tolerance test (OGTT)
Experimental: (§1) The example was comprised of two experiments. Healthy male subjects were recruited to perform the experiments (Table 1). Placebo (cellulose) or P (125 mg of potassium phosphate per tablet) tablets, which had similar weight and color, were administered to subjects in a randomized order to prevent order-of-treatment effect. The consent forms were obtained from patients.
Seven overnight fasted subjects (age (mean±SEM): 23.2±1.83 years; BMI: 22.65±0.82 kg/m2) (Table 1: Experiment 1) were asked to attend 3 experimental sessions that were separated by a minimum of 3 days. Sessions included the consumption of either 500 mg of P (4 tablets), a glucose solution (75 g glucose) with 4 Placebo tablets, or a glucose solution (75 g glucose) with 500 mg P. All were ingested with 250 ml of cold water. Blood was withdrawn at base-line and monitored till 240 min (min) after consumption.
(§2) Serum was separated from collected blood samples and stored at −80° C. for later analysis of glucose, total P, tri-glyceride and insulin. Glucose was measured from venous samples. Insulin sensitivity was estimated by the method of Caumo A, Bergman R N, Cobelli C. Insulin sensitivity from meal tolerance tests in normal subjects: a minimal model index. J Clin. Endocrinol. Metab. 2000; 85:4396-402 and expressed as (×10^4 dl·kg^−1·min^−1·μUml^−1). The method is based on the kinetic of both glucose and insulin through coupling their rate of appearance into circulation following oral glucose ingestion. It is based on simple area under the curve type of calculation and was validated in normal subjects in whom their calculated insulin sensitivity was strongly correlated to that of frequently […] sampled IV glucose test (FSIGT). In addition, index of insulin sensitivity was calculated using the composite equation proposed by Matsuda M, DeFronzo R A. Insulin sensitivity indices obtained from oral glucose tolerance testing: comparison with the euglycemic insulin clamp. Diabetes Care. 1999; 22 (9):1462-7.
(§3) Data are presented as means±SEM. Paired t-tests were used to compare between treatments and to detect the difference from baseline within each treatment. Repeated Measure ANOVA was run to test the effect of treatment groups over time on each of the dependent variables (P, Glucose and insulin). The level of significance was fixed at P <0.05.

overweight/obese adults = assay: 12-week double-blind randomized placebo-controlled phosphorus supplementation study
Experimental: Participants: After approval of the study by the institutional review board at the American University of Beirut (Beirut, Lebanon), 63 adults aged 18 to 45 years with a BMI ≥25 kgm−2, who provided signed informed consent, were recruited from the general public using poster advertisements or direct approach. Exclusion criteria included glomerular filtration rate of 60 ml min−1 per 1.73 m^2, presence of any significant medical disease, pregnancy or lactation, regular administration of drugs that affect body weight and weight change of ≥3% within 3 months before the study. The enrollment of 40 subjects (20 per group) would detect a 10% change in weight of the placebo group, assuming the latter having a mean weight of 90 kg and s.d. of 10 kg, with 80% power and an a of 5%.
This double-blind, randomized, controlled study allocated subjects into placebo group (n=21) or phosphorus group (n=26). Participants were requested to take three tablets containing either 375 mg phosphorus or a placebo (Nutricap Labs, Farmingdale, N.Y., USA) with each main meal (breakfast, lunch and dinner) for 12 weeks. They were asked to maintain regular dietary and physical activity habits during the entire study course and avoid alcohol consumption and any strenuous exercise 24 h before their visits (at baseline, 6 weeks and 12 weeks). Assignment to intervention or control group was made by having the principle investigator (corresponding author) ask the eligible subjects to blindly draw an envelope from a large box of 100 opaque, sealed envelopes (50 for each group), each containing a 2-cm by 2-cm paper with a written code designating intervention or control. There were no detectable differences in size or weight between intervention and control envelopes. In addition, both researchers and participants were blinded for the type of supplements that were similar in size, shape, color and odor.
Subjects were asked to attend the research unit at baseline and after 6 and 12 weeks of participation. At baseline, anthropometric measurements and blood samples were collected and a subjective appetite questionnaire based on Wilson et al. Appetite assessment: simple appetite questionnaire predicts weight loss in community-dwelling adults and nursing home residents. AJCN 2005; 82:1074-1081 was completed. Participants were given a 6-week supply of the allocated supplement and were asked to attend the research unit at the end of this period. At 6 weeks, remaining tablets were collected and counted in order to assess adherence to the allocated intervention. Participants were then given a supply of the same type of supplementation for the consequent 6 weeks and were asked to complete the subjective appetite questionnaire. At 12 weeks, data were collected similar to the baseline visit, and remaining tablets were counted to assess compliance. Individuals who consumed […] of the allocated tablets were excluded. Body weight and height (without shoes) were measured to the nearest 0.1 kg and 0.1 cm, using a calibrated Seca balance (Hamburg, Germany) and a portable stadiometer, respectively. […] Serum phosphorus, creatinine, C-reactive protein, total cholesterol, high-density lipoprotein cholesterol, triglyceride and glucose levels were measured using the Vitros 350 analyzer (Ortho Clinical Diagnostics, Johnson and Johnson, Buckinghamshire, UK). […] Fasting insulin concentration was measured using the ELISA kit (Diametra Millipore, Billerica, Mass., USA). […]

healthy male subjects [2] = assay: Experiment 2: effect of pre-phosphorus ingestion (60 min before glucose) on OGTT
Experimental: as §1
Based on data from experiment 1, peak serum P concentration (60 min) was associated with significant decrease in serum glucose and insulin levels. Thus, experiment 2 was designed to investigate whether P intake one hour prior to glucose ingestion would potentiate the effect of P on postprandial glucose and insulin levels. Eight over-night fasted subjects (age: 27.3±1.68 years; BMI: 23.5±0.97 kg/m^2) (Table 1: Experiment 2) attended 2 experimental sessions that were separated by a minimum of 3 days. Subjects were given placebo or P (500 mg) tab-lets 60 min prior to glucose ingestion. Blood was drawn at baseline (−60 min) and monitored till 240 min relative to glucose ingestion.
as §2, §3

[3] = test system: subjects (unrestrained eaters, stable body weight); assay: Ad libitum energy intake at subsequent meal after preloads with or without phosphorus; settings: for Energy intake (ad libitum) at subsequent meal +P: lunch 80 min after preload, mean ± s.d.
Experimental: A preliminary set of experiments was conducted to investigate the effect of increased phosphorus content of a preload solution on subsequent food intake. The effect of water, sucrose (50 g), fructose (40 g fructose plus 10 g glucose) or glucose (50 g) preloads was examined with or without the addition of 500 mg of phosphorus (mixture of potassium and sodium phosphate). This work was approved by the Institutional Review Board of the American University of Beirut and written informed consent was obtained from all subjects. In brief, participants who had stable body weight for the last 3 months and were unrest-rained eaters as assessed by the three-factor eating questionnaire were selected. All subjects were regular breakfast consumers and were asked to maintain their regular dietary and physical activity habits throughout the course of the example. Subjects were asked to avoid alcohol consumption, as well as any unusual strenuous exercise 24 h before the example. After a minimum of a 12-h fast, they consumed a standard breakfast (440 kcal) 4 h before presenting for the example. Participants chose a time between 1100 and 1400 to be convenient to perform the test; thereafter, they were asked to arrive at the same time on the same day of the week for the second study session. Thus, each experiment used a within-subject design, wherein each participant served as his or her own control.
In each experiment, two chilled preloads (with or without added phosphorus) were offered in a blind randomized order so as to control for the order-of-treatment effect. Each subject presented for two study days separated by a minimum of 1 week. […] At 80 min after the preload, an ad libitum lunch, consisting of standard pizza and water, was offered. Subjects were asked to eat freely until they felt ‘comfortably full’; both food and water intakes were measured. Water intake was measured by weight (g) and food or energy intake (kcal) was obtained from the overall weight of pizza consumed.

lean male subjects = assay: Postprandial energy expenditure after high carbohydrate meal with or without P (ventilated hood); settings: 500 Kcal high carbohydrate meal with 500 mg of P
Experimental: The objective was to determine the effect of phosphorus (P) ingestion with high carbohydrate meal on postprandial energy expenditure. P ingestion increases postprandial thermogenesis of the subjects.
A cross over study was conducted on six lean male subjects. Subjects received a 500 Kcal high carbohydrate meal (CHO: 65% E; Fat: 31% E; Protein: 4% E) with (500 mg of P) or without P. Energy expenditure was measured at baseline and at 30 minute intervals for 4 hours following meal ingestion using a ventilated hood and canopy system COSMED QUARK CPET unit.

[4] = Experiment 2 (n = 8), 500 mg P 60 min prior to 75 g glucose, mean ± SEM

[P] [Phosphorus, phosphorus]
Postprandial insulin concentration (healthy male subjects [1]; 500 mg P alone): did not alter postprandial insulin concentration
Postprandial serum P (healthy male subjects [1]; 500 mg P alone): increased serum P significantly
Decrease in postprandial serum glucose concentration (healthy male subjects [1]; 500 mg P alone, during the experimental session (240 min), believed to be the result of fasting): around 5 mg/dl
Insulin sensitivity [29] (healthy male subjects [1]; Experiment 1 (n = 7), 500 mg P co-ingested with 75 g glucose, mean ± SEM, Caumo et al. formula): 20.22 ± 6.65 ×10^4 dl·kg^−1·min^−1·μUml^−1
Insulin sensitivity index [30] (healthy male subjects [1]; Experiment 1 (n = 7), 500 mg P co-ingested with 75 g glucose, mean ± SEM, Matsuda composite equation): 7.00 ± 1.06
Insulin levels vs glucose treatment (healthy male subjects [1]; G+P (75 g glucose + 500 mg P), time 60 min, P=0.002): significantly lower
Magnitude of increase in postprandial serum glucose vs glucose treatment (healthy male subjects [1]; G+P (75 g glucose + 500 mg P), time 60 min, P=0.016): significantly lower
Change in BMI from baseline (overweight/obese adults; 375 mg phosphorus with each main meal, 12 weeks, 95% CI −0.59 to 0.12, P=0.01 vs placebo): −0.24 kgm−2
Decrease in body weight from baseline (overweight/obese adults; 375 mg phosphorus with each main meal, 12 weeks, 95% CI −1.69 to 0.40, P=0.01 vs placebo): 0.65 kg
Reduction in waist circumference from baseline (overweight/obese adults; 375 mg phosphorus with each main meal, 12 weeks, 95% CI −4.90 to −2.33): 3.62 cm
Changes in subjective appetite scores (appetite, quantity of food to reach fullness, taste of food, number of snacks) vs placebo (overweight/obese adults; baseline to 12 weeks): significantly reduced
Side effects (overweight/obese adults; over the experimental period (12 weeks)): No side effects were reported
Magnitude of insulin increase vs placebo preload (healthy male subjects [2]; 500 mg P preload 60 min before 75 g glucose): modestly lower
Serum P levels following P ingestion (healthy male subjects [2]; 500 mg P preload 60 min before glucose, time 0 and 15 min, then returned to baseline): increased significantly
Insulin sensitivity [29] (healthy male subjects [2]; [4]): 18.39 ± 3.28 ×10^4 dl·kg^−1·min^−1·μUml^−1
Insulin sensitivity index [30] (healthy male subjects [2]; [4]): 8.88 ± 0.78
Energy intake (ad libitum) at subsequent meal +P ([3]; Fructose (40 g fructose plus 10 g glucose) preload with 500 mg added phosphorus): 676 ± 404 kcal
Energy intake (ad libitum) at subsequent meal +P ([3]; Glucose (50 g) preload with 500 mg added phosphorus): 652 ± 291 kcal
Energy intake (ad libitum) at subsequent meal +P ([3]; Sucrose (50 g) preload with 500 mg added phosphorus): 532 ± 341 kcal
Energy intake (ad libitum) at subsequent meal +P ([3]; Water preload with 500 mg added phosphorus): 1119 ± 210 kcal
Reduction in energy intake at the subsequent meal ([3]; phosphorus added to fructose preload): 35%
Reduction in energy intake at the subsequent meal ([3]; phosphorus added to glucose preload): 25%
Reduction in energy intake at the subsequent meal ([3]; phosphorus added to sucrose preload): 33%
Reduction in energy intake at the subsequent meal ([3]; phosphorus added to water preload): 27%
Postprandial energy expenditure vs placebo (lean male subjects; 4 hours, p=0.007): significantly higher
Fat oxidation (%) (lean male subjects; p=0.022): significant rise
Carbohydrate oxidation (%) (lean male subjects; p=0.023): decreased
